Where two headings read alike, the source gives them in different places.
Key:
[1] = Hepatic metabolic stability (rat liver microsome method); type: in vitro ADME; details: rat liver microsomes 0.5 mg/mL, test substance 1 μM, NADPH 1 mM, 37° C., 30 minutes
Protocol: Metabolic stability in rat liver microsomes was evaluated by the following method. In 100 mM of potassium phosphate buffer solution (pH 7.4), liver microsomes (concentration at reaction: 0.5 mg/mL) and the test substance (concentration at reaction: 1 μM) were preincubated at 37° C. Five minutes later, 100 mM of potassium phosphate buffer (pH 7.4) solution of NADPH (concentration at reaction: 1 mM) was mixed thereto to start the reaction. After a predetermined time passed, acetonitrile was mixed to the reaction mixture to stop the reaction. Here, the reaction time was 0 and 30 minutes, and drug concentration measurement was performed for each time period using LC-MS. The % remaining value of the test compound was calculated from the value for 0 minutes and the value for 30 minutes, using the calculation formula below: % Remaining=(Value for 30 Minutes/Value for 0 Minutes)×100
The results of measuring the rat liver microsome metabolic Stability (% remaining for 30-minute reaction) for the test compound by the above method were evaluated in accordance with the following evaluated basis; A: a % remaining rate of 75% or more, B: 60% or more and less than 75%, C: 45% or more and less than 60%, and D: less than 45%.

PDE4 = PDE4 inhibition, scintillation proximity assay (SPA); type: biochemical
In short: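 Scintillation proximity read-out: [2,8-3H]-cAMP hydrolysis by PDE4 ran 120 min at room temperature in Tris-HCl pH 7.4 buffer with 8.3 mM MgCl2, 1.7 mM EGTA and 3 mg/mL BSA. Bead-bound product (YSi-SPA with ZnSO4, 15 min) counted; blank lacks enzyme, control has DMSO only.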

[2] = scintillation proximity assay, class symbols, read-out: PDE4 Inhibitory Activity
[3] = scintillation proximity assay (SPA), evaluated as classes A, B, C, read-out: PDE4 Inhibitory Activity (concentration for the inhibition rate of 50%)

Row | SMILES | Residual ratio (% remaining for 30-minute reaction) [1] | IC50 (PDE4; [2]) | IC50 (PDE4; [3])
1 | O=C(c1ccc(-c2nccs2)c2oc(N3CC4CC(C3)N4)nc12)N1CCOCC1 [Example 359, (2-(3,6-diazabicyclo [3.1.1]heptan-3-yl)-7-(thiazol-2-yl)benzo[d]oxazol-4-yl) (morpholino) methanone] | A (a % remaining rate of 75% or more) | 0.1 to 1 µM | –
2 | CC(C)(O)C(F)(F)Oc1ccc(-n2nccn2)c2oc(N3CC4CCC(C3)N4)nc12 [Example 322, 1-((2-(3,8-Diazabicyclo[3.2.1]octan-3-yl)-7-(2H-1,2,3-triazol-2-yl)benzo[d]oxazol-4-yl)oxy)-1,1-difluoro-2-methylpropan-2-ol] | A (a % remaining rate of 75% or more) | – | < 0.1 µM
3 | FC(F)(F)Oc1ccc(Oc2ccc(-c3nccs3)c3oc(N4CC5CC(C4)N5)nc23)nc1 [Example 343] | B (60% or more and less than 75%) | < 0.1 µM | –
4 | CC(C)(O)C(F)(F)Oc1ccc(-c2nccs2)c2oc(N3CC4CC(C3)N4)nc12 [Example 248, 1-((2-(3,6-Diazabicyclo[3.1.1]heptan-3-yl)-7-(thiazol-2-yl)benzo[d]oxazol-4-yl)oxy)-1,1-difluoro-2-methylpropan-2-ol] | A (a % remaining rate of 75% or more) | – | < 0.1 µM
5 | O=C(NCCO)C(F)(F)Oc1ccc(-c2nccs2)c2oc(N3CC4CC(C3)N4)nc12 [Example 411, 2-((2-(3,6-diazabicyclo [3.1.1]heptan-3-yl)-7-(thiazol-2-yl)benzo[d]oxazol-4-yl)oxy)-2,2-difluoro-N-(2-hydroxy-ethyl) acetamide] | A (a % remaining rate of 75% or more) | < 0.1 µM | –
6 | FC(F)(F)Oc1c(Cl)cc(-c2cscn2)c2oc(N3CC4CCC(C3)N4)nc12 [Example 8, 2-(3,8-Diazabicyclo[3.2.1]octan-3-yl)-5-chloro-7-(thiazol-4-yl)-4-(trifluoromethoxy)benzo[d]oxazole] | A (a % remaining rate of 75% or more) | – | < 0.1 µM
7 | c1csc(-c2ccc(OC3COC3)c3nc(N4CC5CC(C4)N5)oc23)n1 [Example 325, 2-(3,6-Diazabicyclo[3.1.1]heptan-3-yl)-4-(oxetan-3-yloxy)-7-(thiazol-2-yl)benzo[d]oxazole] | A (a % remaining rate of 75% or more) | < 0.1 µM | –
8 | OC1CCN(c2ccc(-c3nccs3)c3oc(N4CC5CC(C4)N5)nc23)CC1 [Example 397, 1-(2-(3,6-diazabicyclo[3.1.1]heptan-3-yl)-7-(thiazol-2-yl)benzo [d]oxazol-4-yl) piperidin-4-ol] | A (a % remaining rate of 75% or more) | < 0.1 µM | –
9 | CC(C)(O)C(F)(F)Oc1c(Br)cc(-c2nccs2)c2oc(N3CC4CC(C3)N4)nc12 [Example 399, 1-((2-(3,6-diazabicyclo [3.1.1]heptan-3-yl)-5-bromo-7-(thiazol-2-yl)benzo[d]oxazol-4-yl)oxy)-1,1-difluoro-2-methylpropan-2-ol] | B (60% or more and less than 75%) | < 0.1 µM | –
10 | Cn1ccc(-c2ccc(OC(F)(F)C(C)(C)O)c3nc(N4CC5CCC(C4)N5)oc23)n1 [Example 328, 1-((2-(3,8-Diazabicyclo[3.2.1]octan-3-yl)-7-(1-methyl-1H-pyrazol-3-yl)benzo[d]oxazol-4-yl)oxy)-1,1-difluoro-2-methylpropan-2-ol] | A (a % remaining rate of 75% or more) | < 0.1 µM | –
11 | COCC(F)(F)Oc1ccc(-c2nccs2)c2oc(N3CC4CC(C3)N4)nc12 [Example 392, 2-(3,6-diazabicyclo[3.1.1]heptan-3-yl)-4-(1,1-difluoro-2-methoxyethoxy)-7-(thiazol-2-yl) benzo[d]oxazole] | B (60% or more and less than 75%) | < 0.1 µM | –
12 | CC(O)C(F)(F)Oc1ccc(-c2nccs2)c2oc(N3CC4CC(C3)N4)nc12 (single isomer, unassigned) [Example 252, 1-((2-(3,6-Diazabicyclo[3.1.1]heptan-3-yl)-7-(thiazol-2-yl)benzo[d]oxazol-4-yl)oxy)-1,1-difluoropropan-2-ol] | A (a % remaining rate of 75% or more) | – | < 0.1 µM
13 | FC(F)(F)c1ccc(Oc2ccc(-c3nccs3)c3oc(N4CC5CC(C4)N5)nc23)nc1 [Example 336, 2-(3,6-diazabicyclo [3.1.1]heptan-3-yl)-7-(thiazol-2-yl)-4-((5-(trifluoromethyl)pyridin-2-yl)oxy)benzo[d]oxazole] | B (60% or more and less than 75%) | < 0.1 µM | –
14 | O=C(NC1CC1)c1ccc(-c2nccs2)c2oc(N3CC4CC(C3)N4)nc12 [Example 357, 2-(3,6-diazabicyclo [3.1.1]heptan-3-yl)-N-cyclopropyl-7-(thiazol-2-yl) benzo[d]oxazole-4-carboxamide] | A (a % remaining rate of 75% or more) | < 0.1 µM | –
15 | CC(C)(O)C(F)(F)Oc1ccc(-c2ccsn2)c2oc(N3CC4CCC(C3)N4)nc12 [Example 331, 1-((2-(3,8-diazabicyclo [3.2.1]octan-3-yl)-7-(isothiazol-3-yl)benzo [d]oxazol-4-yl)oxy)-1,1-difluoro-2-methylpropan-2-ol] | B (60% or more and less than 75%) | < 0.1 µM | –
16 | O=S(=O)(c1ccc(-c2nccs2)c2oc(N3CC4CC(C3)N4)nc12)C(F)(F)F [Example 334, 2-(3,6-diazabicyclo [3.1.1]heptan-3-yl)-7-(thiazol-2-yl)-4-((trifluoromethyl)sulfonyl) benzo[d]oxazole] | B (60% or more and less than 75%) | < 0.1 µM | –
17 | O=S(=O)(CCO)c1ccc(-c2nccs2)c2oc(N3CC4CC(C3)N4)nc12 [Example 350, 2-((2-(3,6-diazabicyclo[3.1.1]heptan-3-yl)-7-(thiazol-2-yl)benzo [d]oxazol-4-yl)sulfonyl)ethan-1-ol] | A (a % remaining rate of 75% or more) | < 0.1 µM | –
18 | OCC(F)(F)Oc1ccc(-c2nccs2)c2oc(N3CC4CC(C3)N4)nc12 [Example 249, 2-((2-(3,6-Diazabicyclo[3.1.1]heptan-3-yl)-7-(thiazol-2-yl)benzo[d]oxazol-4-yl)oxy)-2,2-difluoroethan-1-ol] | B (60% or more and less than 75%) | – | < 0.1 µM
19 | O=C(N1CCOCC1)C(F)(F)Oc1ccc(-c2nccs2)c2oc(N3CC4CC(C3)N4)nc12 [Example 409, 2-((2-(3,6-diazabicyclo [3.1.1]heptan-3-yl)-7-(thiazol-2-yl)benzo[d]oxazol-4-yl)oxy)-2,2-difluoro-1-morpholino-ethan-1-one] | B (60% or more and less than 75%) | < 0.1 µM | –
20 | FC(F)(F)Oc1c(Cl)cc(-n2cccn2)c2oc(N3CC4CCC(C3)N4)nc12 [Example 5, 2-(3,8-Diazabicyclo[3.2.1]octan-3-yl)-5-chloro-7-(1H-pyrazol-1-yl)-4-(trifluoromethoxy)benzo[d]oxazole] | B (60% or more and less than 75%) | – | < 0.1 µM
21 | CCC(O)C(F)(F)Oc1ccc(-c2nccs2)c2oc(N3CC4CC(C3)N4)nc12 (centres unmarked) [Example 395, 1-((2-(3,6-diazabicyclo[3.1.1]heptan-3-yl)-7-(thiazol-2-yl)benzo[d]oxazol-4-yl)oxy)-1,1-difluorobutan-2-ol] | B (60% or more and less than 75%) | < 0.1 µM | –
22 | Fc1ccc(-c2cc(Cl)c(OC(F)(F)F)c3nc(N4CC5CCC(C4)N5)oc23)nc1 [Example 10, 2-(3,8-Diazabicyclo[3.2.1]octan-3-yl)-5-chloro-7-(5-fluoropyridin-2-yl)-4-(trifluoromethoxy)benzo[d]oxazole] | A (a % remaining rate of 75% or more) | – | < 0.1 µM
23 | FC(F)(F)c1c(Cl)cc(-c2ccccn2)c2oc(N3CC4CCCC(C3)N4)nc12 [Example 12, 2-(3,9-Diazabicyclo[3.3.1]nonan-3-yl)-5-chloro-7-(pyridin-2-yl)-4-(trifluoromethyl)benzo[d]oxazole] | B (60% or more and less than 75%) | – | < 0.1 µM
24 | OCc1cnc(Oc2ccc(-c3nccs3)c3oc(N4CC5CC(C4)N5)nc23)c(C(F)(F)F)c1 [Example 342, (6-((2-(3,6-diazabicyclo[3.1.1]heptan-3-yl)-7-(thiazol-2-yl)benzo[d]oxazol-4-yl)oxy)-5-(trifluoromethyl)pyridin-3-yl) methanol] | B (60% or more and less than 75%) | < 0.1 µM | –
25 | OCC(F)(F)Oc1ccc(-c2nccs2)c2oc(N3CC4CCC(C3)N4)nc12 [Example 404, 2-((2-(3,8-diazabicyclo [3.2.1]octan-3-yl) 7-(thiazol-2-yl)benzo[d]oxazol-4-yl)oxy)-2,2-difluoroethan-1-ol] | B (60% or more and less than 75%) | < 0.1 µM | –
